Pest or weed control data for five compounds are collected here from patent US4335249A, “Herbicidal diphenyl ethers, sulfides, sulfoxides and sulfones” (Rohm and Haas Company, priority 1976, dated 1982).

Holding throughout (type): in vivo
Experiment [1] has as its system morningglory (Ipomoca spp.). The experiment can be described thus: Preemergence herbicidal activity, morningglory. The note with it: Ipomoea, pre-emergence, 336 h; for pest or weed control at 2241.7 g/ha: 2 lb/A. The protocol:
(§1) Using the procedure described below, compounds of the invention are evaluated for control of several of the following plant species:
(§2) The following est procedure is employed. Seeds of selected crops and weeds are planted in soil in flats. For preemergence tests, the flats are treated with the test compound immediately after the planting. For postemergence tests, the seeds are allowed to germinate, and after two weeks the flats are treated with the test compound. The compound to be evaluated is dissolved in acetone, diluted with water, and sprayed over the flats using a carrier volume equivalent to 50 gallons per acre at the rate of application (pounds per acre, lb/A.) specified in the tables. About two weeks after the application of the test compound, the state of growth of the plants is observed and the phytotoxic effect of the compound is evaluated. Tables III and IV give the average percent control achieved by test compounds in terms of the percent of the plants which are killed by the compounds.

The subject of experiment [2] is wild oats (Avena fatua). Briefly: Postemergence herbicidal activity, wild oats. The note with it: Avena fatua, post-emergence, 336 h, Post, read-out: % control, Wild oat; for pest or weed control at 2241.7 g/ha: 2 lb/A. The protocol: as §1, §2
Experiment [3] has as its system downybrome (Bromus tectorum). Briefly: Postemergence herbicidal activity, downybrome. To be noted: Bromus tectorum, post-emergence, 336 h, Post; for pest or weed control at 2241.7 g/ha: 2 lb/A. The protocol: as §1, §2
Experiment [4] deals with wild oats (Avena fatua). Briefly: Preemergence herbicidal activity, wild oats. To be noted: Avena fatua, pre-emergence, 336 h, Pre, read-out: % control, Wild oat; for pest or weed control at 2241.7 g/ha: 2 lb/A. The protocol:
as §1, §2

The subject of experiment [5] is foxtail (Setaria spp.). The experiment can be described thus: Preemergence herbicidal activity, foxtail. The note with it: Setaria, pre-emergence, 336 h, Pre; for pest or weed control at 2241.7 g/ha: 2 lb/A. The protocol:
as §1, §2

Experiment [6] deals with marigold (Tagetes spp.). Briefly: Postemergence herbicidal activity, marigold. To be noted: post-emergence, 336 h; for pest or weed control at 2241.7 g/ha: 2 lb/A. The procedure: as §1, §2
For experiment [7], the system named is yellow nutsedge (Cyperus esculentus). Briefly: Postemergence herbicidal activity, yellow nutsedge. The note with it: Cyperus, post-emergence, 336 h; for pest or weed control at 2241.7 g/ha: 2 lb/A. The protocol: as §1, §2
Experiment [8] deals with tomato (Lycopersicon esculentum). Briefly: Postemergence herbicidal activity, tomato. To be noted: Solanum lycopersicum, post-emergence, 336 h, Post; for pest or weed control at 2241.7 g/ha: 2 lb/A. The protocol:
as §1, §2

The test system of experiment [9] is barnyardgrass (Echinochloa crusgalli). The experiment can be described thus: Postemergence herbicidal activity, barnyardgrass. The note with it: Echinochloa crus-galli, post-emergence, 336 h, Post; for pest or weed control at 2241.7 g/ha: 2 lb/A. The protocol: as §1
(§3) The following est procedure is employed. Seeds of selected crops and weeds are planted in soil in flats. For preemergence tests, the flats are treated with the test compound immediately after the planting. For postemergence tests, the seeds are allowed to germinate, and after two weeks the flats are treated with the test compound. The compound to be evaluated is dissolved in acetone, diluted with water, and sprayed over the flats using a carrier volume equivalent to 50 gallons per acre at the rate of application (pounds per acre, lb/A.) specified in the tables.

Experiment [10] deals with velvetleaf (Abutilon theophrasti). The experiment can be described thus: Postemergence herbicidal activity, velvetleaf. The note with it: Abutilon theophrasti, post-emergence, 336 h; for pest or weed control at 2241.7 g/ha: 2 lb/A. The protocol:
as §1, §3

For experiment [11], the system named is barnyardgrass (Echinochloa crusgalli). The experiment can be described thus: Preemergence herbicidal activity, barnyardgrass. To be noted: Echinochloa crus-galli, pre-emergence, 336 h, Pre; for pest or weed control at 2241.7 g/ha: 2 lb/A. The protocol:
as §1, §3

The test system of experiment [12] is marigold (Tagetes spp.). Briefly: Preemergence herbicidal activity, marigold. The note with it: pre-emergence, 336 h; for pest or weed control at 2241.7 g/ha: 2 lb/A. The procedure: as §1, §2
In experiment [13] the test system is cocklebur (Xanthium pensylvanicum). The experiment can be described thus: Preemergence herbicidal activity, cocklebur. The note with it: Xanthium strumarium, pre-emergence, 336 h; for pest or weed control at 2241.7 g/ha: 2 lb/A. The protocol:
as §1, §2

In experiment [14] the test system is tomato (Lycopersicon esculentum). Briefly: Preemergence herbicidal activity, tomato. To be noted: Solanum lycopersicum, pre-emergence, 336 h, Pre; for pest or weed control at 2241.7 g/ha: 2 lb/A. The procedure:
as §1, §2

Experiment [15] concerns yellow nutsedge (Cyperus esculentus). The experiment can be described thus: Preemergence herbicidal activity, yellow nutsedge. The note with it: Cyperus, pre-emergence, 336 h; for pest or weed control at 2241.7 g/ha: 2 lb/A. The protocol:
as §1, §2

In experiment [16] the test system is downybrome (Bromus tectorum). Briefly: Preemergence herbicidal activity, downybrome. The note with it: Bromus tectorum, pre-emergence, 336 h, Pre; for pest or weed control at 2241.7 g/ha: 2 lb/A. The protocol:
as §1, §2

The subject of experiment [17] is cocklebur (Xanthium pensylvanicum). Briefly: Postemergence herbicidal activity, cocklebur. The note with it: Xanthium strumarium, post-emergence, 336 h; for pest or weed control at 2241.7 g/ha: 2 lb/A. The protocol: as §1, §2
Experiment [18] concerns morningglory (Ipomoca spp.). The experiment can be described thus: Postemergence herbicidal activity, morningglory. The note with it: Ipomoea, post-emergence, 336 h; for pest or weed control at 2241.7 g/ha: 2 lb/A. The protocol: as §1, §2
The subject of experiment [19] is velvetleaf (Abutilon theophrasti). The experiment can be described thus: Preemergence herbicidal activity, velvetleaf. To be noted: Abutilon theophrasti, pre-emergence, 336 h, Pre; for pest or weed control at 2241.7 g/ha: 2 lb/A. The procedure:
as §1, §2

Experiment [20] deals with foxtail (Setaria spp.). Briefly: Postemergence herbicidal activity, foxtail. To be noted: Setaria, post-emergence, 336 h, Post; for pest or weed control at 2241.7 g/ha: 2 lb/A. The procedure:
as §1, §2

Molecules are shown by their SMILES.

For `CCOC(=O)COc1ccc(Oc2ccc(C(F)(F)F)cc2Cl)cc1` [Example 11], the pest or weed control at 2241.7 g/ha in experiment [1] came out at 0%; with wild oats (Avena fatua) [2], 40%; in [3], 0%; in the experiment with wild oats (Avena fatua) [4] it was 0%; with foxtail (Setaria spp.) [5], 30%; in the experiment on marigold (Tagetes spp.) [6], 0%. The pest or weed control at 2241.7 g/ha in experiment [7] was 0%; in experiment [8], 0%; in experiment [9], 20%; in experiment [10], 20%; in experiment [11], 0%; in the experiment on marigold (Tagetes spp.) [12], 0%. Further, the pest or weed control at 2241.7 g/ha worked out at 0% in experiment [13]; 0% in experiment [14]; 0% in experiment [15]; 0% in experiment [16]; 50% in experiment [17]; 30% in experiment [18]. For the same compound, the pest or weed control at 2241.7 g/ha in experiment [19] came out at 0%; with foxtail (Setaria spp.) [20], 30%.

Turning to `CCCCCCCCOC(=O)C(C)Oc1ccc(Oc2ccc(C(F)(F)F)cc2Cl)cc1` (stereo not shown) [Example 26], the pest or weed control at 2241.7 g/ha in experiment [1] amounted to 0%; in the experiment with wild oats (Avena fatua) [2], 20%; in experiment [3] it was 50%; with wild oats (Avena fatua) [4], 50%; in the experiment with foxtail (Setaria spp.) [5], 0%; in the experiment on marigold (Tagetes spp.) [6], 70%. Besides, the pest or weed control at 2241.7 g/ha in experiment [7] is 20%; in [8] it was 30%; in [9] it was 100%; in experiment [10], 50%; in experiment [11] it was 50%; in the experiment on marigold (Tagetes spp.) [12], 0%. Besides, the pest or weed control at 2241.7 g/ha was determined as 0% in experiment [13]; 0% in experiment [14]; 0% in experiment [15]; 0% in [16]; 60% in experiment [17]; 70% in [18]. Further, the pest or weed control at 2241.7 g/ha is 0% in experiment [19] and 100% with foxtail (Setaria spp.) [20].

Take `CC(Oc1ccc(Oc2ccc(C(F)(F)F)cc2Cl)cc1)C(=O)OC(C)(C)C` (stereo not shown) [Example 35]: the pest or weed control at 2241.7 g/ha in experiment [1] stood at 0%; in the experiment on wild oats (Avena fatua) [2], 0%; in experiment [3] it was 0%; with wild oats (Avena fatua) [4], 0%; in the experiment with foxtail (Setaria spp.) [5], 100%; in the experiment on marigold (Tagetes spp.) [6], 0%. Besides, the pest or weed control at 2241.7 g/ha in experiment [7] worked out at 0%; in experiment [8], 0%; in experiment [9] it was 60%; in experiment [10] it was 0%; in experiment [11] it was 99%; in the experiment on marigold (Tagetes spp.) [12], 0%. Also, the pest or weed control at 2241.7 g/ha in experiment [13], in experiment [14], in experiment [15], in [16], in experiment [17] and in experiment [18] was 0% each time. In addition, the pest or weed control at 2241.7 g/ha was determined as 0% in experiment [19] and 100% with foxtail (Setaria spp.) [20].

On to `CCOC(=O)C(C)Oc1ccc([S+]([O-])c2ccccc2C(F)(F)F)cc1` (stereo not shown) [Example 49, Ethyl 2-[4-(2-trifluoromethylphenylsulfinyl)phenoxy]propionate], for which the pest or weed control at 4483.4 g/ha worked out at 0% in [1] (4 lb/A); 30% in the experiment on wild oats (Avena fatua) [2] (4 lb/A); 0% in experiment [3] (4 lb/A); 0% with wild oats (Avena fatua) [4] (4 lb/A); 0% in the experiment with foxtail (Setaria spp.) [5] (4 lb/A); 0% with marigold (Tagetes spp.) [6] (4 lb/A). The pest or weed control at 4483.4 g/ha in [7] (4 lb/A) was found to be 0%; in experiment [8] (4 lb/A), 20%; in [9] (4 lb/A) it was 20%; in experiment [10] (4 lb/A), 20%; in [11] (4 lb/A), 0%; in the experiment on marigold (Tagetes spp.) [12] (4 lb/A) it was 0%. Moreover, the pest or weed control at 4483.4 g/ha in experiment [13] (4 lb/A), in [14] (4 lb/A), in experiment [15] (4 lb/A), in experiment [16] (4 lb/A), in [17] (4 lb/A) and in [18] (4 lb/A) was 0% in each case. Moreover, the pest or weed control at 4483.4 g/ha in [19] (4 lb/A) came to 0%; in the experiment with foxtail (Setaria spp.) [20] (4 lb/A), 20%.

Turning to `CC(C#N)Oc1ccc(Oc2ccc(C(F)(F)F)cc2)cc1` (stereo not shown) [Example 41, 2-[4-(4-trifluoromethylphenoxy)phenoxy] propionitrile], the pest or weed control at 2241.7 g/ha is 0% in experiment [1]; 99% in the experiment on wild oats (Avena fatua) [2]; 40% in experiment [3]; 70% in the experiment with wild oats (Avena fatua) [4]; 100% in the experiment on foxtail (Setaria spp.) [5]; 0% in the experiment on marigold (Tagetes spp.) [6]. In addition, the pest or weed control at 2241.7 g/ha stood at 0% in experiment [7]; 0% in [8]; 100% in [9]; 0% in experiment [10]; 99% in experiment [11]; 0% in the experiment with marigold (Tagetes spp.) [12]. The pest or weed control at 2241.7 g/ha came to 0% in [13]; 0% in [14]; 0% in [15]; 80% in experiment [16]; 0% in experiment [17]; 0% in experiment [18]. Further, the results for the pest or weed control at 2241.7 g/ha (in [19]; in the experiment on foxtail (Setaria spp.) [20]) were 0% and 60%, respectively.
